The values below come from BindingDB's records for doi:10.1016/s0960-894x(00)00185-2 (Yale University, 2000).

The target in experiment [1] is D(2) dopamine receptor (Rattus norvegicus) (UniProt P61169). The experiment in a line: Compound was evaluated for affinity towards dopamine D2-like receptor in homogenate of caudate putamen tissue from rat brain.
Experiment [2] deals with 5-hydroxytryptamine receptor 2A (Rattus norvegicus, UniProt P14842). The experiment in a line: ChEBML_2648. The protocol: Compound was evaluated for affinity towards cerebral 5-hydroxytryptamine 2A receptor in homogenate of caudate putamen tissue from rat brain
Experiment [3] deals with T1, 5-hydroxytryptamine receptor 2C (Rattus norvegicus, UniProt P08909).
T1 sequence (P08909 whole entry): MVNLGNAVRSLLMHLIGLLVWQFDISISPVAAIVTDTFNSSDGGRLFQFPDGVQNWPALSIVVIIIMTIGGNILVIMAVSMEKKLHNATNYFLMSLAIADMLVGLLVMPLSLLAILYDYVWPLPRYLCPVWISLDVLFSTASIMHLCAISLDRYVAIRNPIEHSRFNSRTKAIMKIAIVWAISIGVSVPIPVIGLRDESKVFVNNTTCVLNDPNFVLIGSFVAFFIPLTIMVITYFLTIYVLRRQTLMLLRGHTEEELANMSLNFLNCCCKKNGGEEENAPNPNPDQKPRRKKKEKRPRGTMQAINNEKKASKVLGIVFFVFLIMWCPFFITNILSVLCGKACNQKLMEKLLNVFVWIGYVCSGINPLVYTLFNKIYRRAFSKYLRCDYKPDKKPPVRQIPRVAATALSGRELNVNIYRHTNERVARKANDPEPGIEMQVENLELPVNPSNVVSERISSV
The experiment in a line: ChEBML_2831. The protocol:
Compound was evaluated for affinity towards cerebral 5-hydroxytryptamine 2C receptor in homogenate of caudate putamen tissue from rat brain

The next experiment concerns the target D(1A) dopamine receptor (Rattus norvegicus, UniProt P18901). Nature of the experiment: ChEBML_59008. As to the method: Compound was evaluated for affinity towards dopamine D1-like receptor in homogenate of caudate putamen tissue from rat brain

Sequence of D(2) dopamine receptor (Rattus norvegicus) (P61169 whole entry, looked up): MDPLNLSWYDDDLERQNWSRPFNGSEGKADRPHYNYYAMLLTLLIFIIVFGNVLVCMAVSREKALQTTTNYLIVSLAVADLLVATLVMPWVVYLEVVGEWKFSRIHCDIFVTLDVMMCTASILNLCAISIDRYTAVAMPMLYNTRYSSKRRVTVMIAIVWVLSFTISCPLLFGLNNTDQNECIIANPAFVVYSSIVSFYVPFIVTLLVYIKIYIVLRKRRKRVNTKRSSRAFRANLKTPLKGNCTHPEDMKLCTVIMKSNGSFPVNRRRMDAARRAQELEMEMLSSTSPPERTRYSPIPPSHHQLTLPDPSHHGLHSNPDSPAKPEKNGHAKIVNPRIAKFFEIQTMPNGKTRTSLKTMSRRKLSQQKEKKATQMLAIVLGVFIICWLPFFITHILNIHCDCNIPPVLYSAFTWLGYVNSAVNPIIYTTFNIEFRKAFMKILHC
Sequence of 5-hydroxytryptamine receptor 2A (P14842 whole entry): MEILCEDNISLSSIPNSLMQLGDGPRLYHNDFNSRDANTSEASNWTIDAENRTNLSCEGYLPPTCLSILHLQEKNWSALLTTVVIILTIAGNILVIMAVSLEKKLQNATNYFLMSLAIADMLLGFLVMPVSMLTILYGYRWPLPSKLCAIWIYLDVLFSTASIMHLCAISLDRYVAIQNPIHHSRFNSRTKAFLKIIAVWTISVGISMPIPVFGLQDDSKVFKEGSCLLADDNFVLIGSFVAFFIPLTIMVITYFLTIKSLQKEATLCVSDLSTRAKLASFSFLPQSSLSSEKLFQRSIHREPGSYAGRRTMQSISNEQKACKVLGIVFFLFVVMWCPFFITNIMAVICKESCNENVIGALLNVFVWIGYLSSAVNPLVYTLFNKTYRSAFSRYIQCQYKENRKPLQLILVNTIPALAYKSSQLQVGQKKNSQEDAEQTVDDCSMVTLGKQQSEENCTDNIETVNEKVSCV
Sequence of D(1A) dopamine receptor (P18901 whole entry): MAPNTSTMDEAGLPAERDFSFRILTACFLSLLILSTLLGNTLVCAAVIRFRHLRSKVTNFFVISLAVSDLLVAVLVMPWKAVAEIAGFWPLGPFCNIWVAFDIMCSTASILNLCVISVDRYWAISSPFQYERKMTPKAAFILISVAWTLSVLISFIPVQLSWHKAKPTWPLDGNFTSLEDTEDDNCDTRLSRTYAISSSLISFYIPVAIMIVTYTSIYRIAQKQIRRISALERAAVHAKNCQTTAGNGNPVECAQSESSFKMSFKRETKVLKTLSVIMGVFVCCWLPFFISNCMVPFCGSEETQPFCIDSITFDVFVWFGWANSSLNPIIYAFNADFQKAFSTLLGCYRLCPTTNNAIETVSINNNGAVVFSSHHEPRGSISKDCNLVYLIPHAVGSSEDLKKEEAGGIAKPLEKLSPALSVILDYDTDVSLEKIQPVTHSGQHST

In experiment [1], `CN1CCc2cc(Cl)c(O)cc2C(c2cccc(Br)c2)C1` (centres undefined) [5-(3-Bromo-phenyl)-8-chloro-3-methyl-2,3,4,5-tetrahydro-1H-benzo[d]azepin-7-ol] had a Ki of 1120 nM.
Consider `CN1CCc2cc(Cl)c(O)cc2C(c2ccccc2C(=O)C2=CC=C[C@@H]2[Re]([CH]=O)([CH]=O)[CH]=O)C1` (some centres undefined) [Cyclopentadienyltricarbonylrheniumbenzazepine (2`-CPTR-SCH-23390)], for which the Ki is 17 nM in experiment [2], 29 nM in experiment [3], 0.61 nM on D(1A) dopamine receptor and 549 nM in experiment [1].
In the same order, the values of `CN1CCc2cc(Cl)c(O)cc2C(c2cccc(C(=O)C3=CC=C[C@@H]3[Re]([CH]=O)([CH]=O)[CH]=O)c2)C1` (some centres undefined) [Cyclopentadienyltricarbonylrheniumbenzazepine (3`-CPTR-SCH-23390)] are 227 nM, 106 nM, 2.9 nM and more than 10000 nM.

Broadly, the Ki is the dissociation constant of the complex between target and ligand, obtained from inhibition or displacement. A higher Ki goes with lower affinity.
